ChEMBL document CHEMBL5137114, “Discovery of IHMT-MST1-58 as a Novel, Potent, and Selective MST1 Inhibitor for the Treatment of Type 1/2 Diabetes” (J Med Chem, 2022)
pKd: −log10 of the molar value. The source made the active and inactive calls. The rule behind the calls is not given here.

Assays:
[1] = Cmax in Sprague-Dawley rat at 1 mg/kg, iv measured up to 12 hrs by LC-MS/MS analysis; format: ADME, organism-based; set-up: time < 12 hrs, dose 1 mg/kg, route iv; conditions: in vivo
[2] = Half life in Sprague-Dawley rat at 10 mg/kg, po measured up to 24 hrs by LC-MS/MS analysis; format: ADME, organism-based; conditions: in vivo
[3] = system: Serine/threonine-protein kinase 4 (Rattus norvegicus); assay: Inhibition of TNF-alpha-stimulated MST1 phosphorylation in rat RIN-m5F cells incubated for 12 hrs by Western blotting analysis; conditions: dose 0.1-10 µM, DDE = dose-dependent effect
[4] = system: Serine/threonine-protein kinase 4 (Rattus norvegicus); assay: Inhibition of INF-gamma-stimulated MST1 in rat INS1 cells assessed as reduction in MOB1 autophosphorylation incubated for 12 hrs by Western blotting analysis; conditions: dose 0.1-10 µM, DDE = dose-dependent effect
[5] = Cmax in mouse at 1 mg/kg, iv measured up to 12 hrs by LC-MS/MS analysis; format: ADME, organism-based; set-up: time < 12 hrs, dose 1 mg/kg, route iv; conditions: in vivo
[6] = system: Serine/threonine-protein kinase 4 (Rattus norvegicus); assay: Inhibition of IL-1beta[…]-stimulated MST1 in rat RIN-m5F cells assessed as reduction in MOB1 autophosphorylation incubated for 12 hrs by Western blotting analysis; conditions: dose 0.1-10 µM, DDE = dose-dependent effect
[7] = system: Serine/threonine-protein kinase 4 (Rattus norvegicus); assay: Inhibition of IL-1beta-stimulated MST1 in rat INS1 cells assessed as reduction in MOB1 autophosphorylation incubated for 12 hrs by Western blotting analysis; conditions: dose 0.1-10 µM, DDE = dose-dependent effect
RIN-m5F = assay: Protection against TNF-alpha-induced cell damage in rat RIN-m5F cells assessed as increase in cell survival at 0.03 to 0.3 uM incubated for 48 hrs by Cell Titer-Glo assay; format: functional, cell-based; conditions: dose 0.03-0.3 µM
Mus musculus [8] = assay: Antidiabetic activity in high fat diet-STZ-induced C57BL/6J mouse model of type 2 diabetes assessed as reduction in HbA1c level at 250 mg/kg, po qd administered in presence of metformin (reference value: 8.6 %); format: functional; set-up: scale not given: the % may be the effect or the level left
[9] = system: Serine/threonine-protein kinase 4 (Rattus norvegicus); assay: Inhibition of INF-gamma-stimulated MST1 in rat RIN-m5F cells assessed as reduction in MOB1 autophosphorylation incubated for 12 hrs by Western blotting analysis; conditions: dose 0.1-10 µM, DDE = dose-dependent effect
[10] = system: Serine/threonine-protein kinase 4 (Rattus norvegicus); assay: Inhibition of TNF-alpha-stimulated MST1 in rat INS1 cells assessed as reduction in MOB1 autophosphorylation incubated for 12 hrs by Western blotting analysis; conditions: dose 0.1-10 µM, DDE = dose-dependent effect
[11] = AUC (0 to t) in mouse plasma at 50 mg/kg, po measured up to 24 hrs by LC-MS/MS analysis; format: ADME, organism-based; set-up: dose 50 mg/kg, time < 24 hrs, route po
[12] = Toxicity in high fat diet-STZ-induced C57BL/6J mouse model of type 2 diabetes assessed as effect on pancreas morphology at 50 mg/kg, po qd by H and E staining based analysis; format: organism-based; conditions: in vivo
[13] = Clearance in mouse plasma at 50 mg/kg, po measured up to 24 hrs by LC-MS/MS analysis; format: ADME, organism-based
[14] = AUC (0 to t) in mouse Pancreas at 50 mg/kg, po measured up to 24 hrs by LC-MS/MS analysis; format: ADME, organism-based; set-up: time < 24 hrs, dose 50 mg/kg, route po
Mus musculus [15] = assay: Antidiabetic activity in high fat diet-STZ-induced C57BL/6J mouse model of type 2 diabetes assessed as reduction in HbA1c level at 50 mg/kg, po qd (reference value: 8.6 %); format: functional; set-up: scale not given: the % may be the effect or the level left
[16] = Cmax in Beagle dog at 10 mg/kg, po measured up to 24 hrs by LC-MS/MS analysis; format: ADME, organism-based, Canis lupus familiaris; set-up: time < 24 hrs, dose 10 mg/kg, route po; conditions: in vivo
[17] = biological target: T1, Serine/threonine-protein kinase 3 (Homo sapiens) (UniProt Q13188); assay: Inhibition of recombinant full length N-terminal GST -tagged human MST2 expressed in baculovirus infected Sf9 insect cells using KKSRGDYMTMQIG as substrate incubated for 1 hr in presence of ATP by ADP-Glo luminescent assay relative to control; conditions: concentration not given here
T1 sequence (whole entry): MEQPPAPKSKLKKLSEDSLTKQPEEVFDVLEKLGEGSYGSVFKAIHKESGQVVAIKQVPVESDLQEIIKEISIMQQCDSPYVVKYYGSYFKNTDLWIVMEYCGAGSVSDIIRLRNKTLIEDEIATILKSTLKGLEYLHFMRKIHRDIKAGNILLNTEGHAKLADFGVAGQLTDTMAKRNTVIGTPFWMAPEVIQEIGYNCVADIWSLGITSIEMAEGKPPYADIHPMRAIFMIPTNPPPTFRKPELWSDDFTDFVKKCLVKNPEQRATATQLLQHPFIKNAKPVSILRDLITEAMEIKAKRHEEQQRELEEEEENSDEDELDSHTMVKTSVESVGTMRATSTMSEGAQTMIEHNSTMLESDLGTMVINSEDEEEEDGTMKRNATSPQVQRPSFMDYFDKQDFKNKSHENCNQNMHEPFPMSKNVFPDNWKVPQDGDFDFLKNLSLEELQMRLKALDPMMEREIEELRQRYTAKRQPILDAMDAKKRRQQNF

Mus musculus [18] = assay: Antidiabetic activity against 12 hrs fasted high fat diet-STZ-induced C57BL/6J mouse model of type 2 diabetes assessed as decrease in fasting blood glucose level at 50 mg/kg, po qd administered measured immediately in presence of metformin (reference value: 20.3 mmol/L); format: functional
Mus musculus [19] = assay: Antidiabetic activity in 12 to 14 hrs fasted multi low dose STZ-induced C57BL/6J mouse model of type 1 diabetes assessed as reduction on blood glucose at 50 mg/kg, po qd pretreated with compound followed by glucose challenge and measured upto 180 mins by IPGTT assay; format: functional, organism-based
[20] = biological target: T2, Serine/threonine-protein kinase 4 (Homo sapiens, UniProt Q13043); assay: Binding affinity to wild-type human full length MST1 (M1 to F487 residues) expressed in bacterial expression system by Kinomescan method
T2 sequence (Q13043 whole entry): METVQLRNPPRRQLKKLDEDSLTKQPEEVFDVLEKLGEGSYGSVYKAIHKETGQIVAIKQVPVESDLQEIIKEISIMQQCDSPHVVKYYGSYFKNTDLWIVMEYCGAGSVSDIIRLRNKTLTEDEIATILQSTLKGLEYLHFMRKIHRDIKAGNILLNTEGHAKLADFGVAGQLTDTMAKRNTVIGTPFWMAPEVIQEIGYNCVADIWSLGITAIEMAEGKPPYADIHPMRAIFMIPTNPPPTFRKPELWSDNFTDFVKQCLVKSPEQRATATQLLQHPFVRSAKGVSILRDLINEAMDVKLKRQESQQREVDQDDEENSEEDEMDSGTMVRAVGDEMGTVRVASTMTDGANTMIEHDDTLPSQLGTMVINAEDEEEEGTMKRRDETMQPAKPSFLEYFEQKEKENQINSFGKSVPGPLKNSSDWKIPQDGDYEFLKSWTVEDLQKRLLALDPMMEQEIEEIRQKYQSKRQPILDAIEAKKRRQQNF

Mus musculus [21] = assay: Antidiabetic activity against multi low dose STZ-induced C57BL/6J mouse model of type 1 diabetes assessed as food intake at 50 mg/kg, po administered for 78 to 79 days in presence of metformin (reference value: 4.7 g/day); format: functional; conditions: time 78-79 day

Cmax [1]: 944 ng/mL
half-life [2]: 3.03 h
inhibition [3]: Dde
inhibition [4]: Dde
Cmax [5]: 1240 ng/mL
inhibition [6]: Dde
inhibition [7]: Dde
inhibition [9]: Dde
inhibition [10]: Dde
AUC(0-t) at 24 h [11]: 13600 ng·h/mL
CL/F [13]: 62.2 mL/min/kg
AUC(0-t) at 24 h [14]: 51400 ng·h/mL
Cmax [16]: 1110 ng/mL
inhibition [17]: 52%
pKd [20]: 6.62
SMILES: Cc1ccccc1C1C(=O)N(C)c2cnc(Nc3ccc(S(N)(=O)=O)cc3)nc2N1C (configuration not stated)
Activity (RIN-m5F): Active
Activity (Mus musculus [8]): 5.9%
Activity [12]: Non-Toxic
Activity (Mus musculus [15]): 7.9%
Activity (Mus musculus [18]): 20.3 mmol/L
Activity (Mus musculus [19]): Active
Activity (Mus musculus [21]): 4.1 g/day
